Experimental data as given in the supplement of paper PMC10307832.

Columns and labels:
Assay in all cases: relative viability (nuclei count vs DMSO), 5 days (fraction); higher = more cells survive
[1] = compound: CC[C@@H](C)CNCC(=O)N1CCC2=C([C@@H]1COC3=CC=CC(=C3)C)C=CS2 [RU-SKI 43] + Nc1nc2[nH]cc(CCc3ccc(C(=O)N[C@@H](CCC(=O)O)C(=O)O)cc3)c2c(=O)[nH]1 [Pemetrexed] (partner 0.2 µM)
Method in brief: (§1)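 Lung cancer cell lines were seeded in 1536-well plates and dosed by pin tool the next day, with either a single drug or a fixed anchor-drug dose combined with five library-drug doses (not always all listed) spaced in √10 steps. Five days later, one step fixed the cells and stained their nuclei (final 0.05% Triton X-100, 1% formaldehyde, 1 ug/ml Hoechst), and nuclei were counted on 4× images. Relative viability is the nuclei count in treated wells divided by the count in vehicle wells, and each value is the median of duplicate plates.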

[2] = compound: CCc1c2c(nc3ccc(OC(=O)N4CCC(N5CCCCC5)CC4)cc13)-c1cc3c(c(=O)n1C2)COC(=O)[C@]3(O)CC [Irinotecan] + CS(=O)(=O)N1CCN(Cc2cc3nc(-c4cccc5[nH]ncc45)nc(N4CCOCC4)c3s2)CC1 [Pictilisib] (partner 1 µM)
Method in brief: as §1

[3] = compound: Cn1cc(-c2cnc3ccc4ccc(CS(=O)(=O)NCc5ccccn5)cc4c(=O)c3c2)cn1 [MK-8033] + Cc1nc(NC(=O)N2CCC[C@H]2C(N)=O)sc1-c1ccnc(C(C)(C)C(F)(F)F)c1 [Alpelisib] (partner 2 µM)
Method in brief: as §1

[4] = compound: CCc1c2c(nc3ccc(OC(=O)N4CCC(N5CCCCC5)CC4)cc13)-c1cc3c(c(=O)n1C2)COC(=O)[C@]3(O)CC [Irinotecan] + COc1cc2c(Oc3ccc(NC(=O)C4(C(=O)Nc5ccc(F)cc5)CC4)cc3F)ccnc2cc1OCCCN1CCOCC1 [Foretinib] (partner 0.25 µM)
Method in brief: as §1

| Cell Line | relative viability ([1]; first compound 0.1 µM) | relative viability ([1]; first compound 0.3162 µM) | relative viability ([1]; first compound 1 µM) | relative viability ([1]; first compound 3.162 µM) | relative viability ([1]; first compound 10 µM) | relative viability ([2]; first compound 0.6325 µM) | relative viability ([2]; first compound 2 µM) | relative viability ([2]; first compound 6.325 µM) | relative viability ([2]; first compound 20 µM) | relative viability ([3]; first compound 0.02 µM) | relative viability ([3]; first compound 0.06325 µM) | relative viability ([3]; first compound 0.2 µM) | relative viability ([3]; first compound 0.6325 µM) | relative viability ([3]; first compound 2 µM) | relative viability ([4]; first compound 2 µM) | relative viability ([4]; first compound 6.325 µM) | relative viability ([4]; first compound 20 µM) | relative viability ([4]; first compound 0.6325 µM) |
| --- | --- | --- | --- | --- | --- | --- | --- | --- | --- | --- | --- | --- | --- | --- | --- | --- | --- | --- |
| HCC-15 | 0.215 | 0.229 | 0.241 | 0.217 | 0.2 | 0.186 | 0.286 | 0.137 | 0.167 | 0.847 | 0.947 | 0.863 | 0.841 | 0.875 | 0.695 | 0.23 | 0.161 | – |
| HCC-44 | 0.624 | 0.652 | 0.639 | 0.721 | 0.69 | 0.657 | 0.438 | 0.221 | 0.404 | 0.798 | 0.775 | 0.751 | 0.796 | 0.789 | – | – | – | – |
| HCC-78 | 0.916 | 0.925 | 0.933 | 0.92 | 0.923 | 0.276 | 0.172 | 0.149 | 0.158 | 0.271 | 0.293 | 0.267 | – | 0.357 | 0.491 | 0.282 | 0.24 | 0.695 |
| HCC-366 | 0.187 | 0.151 | 0.154 | 0.219 | 0.228 | 0.181 | 0.142 | 0.0733 | 0.0469 | 0.409 | 0.435 | 0.325 | 0.376 | 0.325 | 0.114 | 0.0566 | 0.0694 | 0.346 |
| HCC-827 | 0.289 | 0.267 | 0.264 | 0.265 | 0.253 | 0.878 | 0.59 | 0.548 | 0.388 | 1.01 | – | 1.07 | 0.908 | 0.91 | 0.324 | 0.207 | 0.175 | 0.637 |
| HOP-62 | 0.327 | 0.292 | 0.344 | 0.334 | 0.284 | 0.239 | 0.261 | 0.13 | 0.269 | 0.987 | 0.75 | 1.05 | 0.956 | 0.938 | 0.256 | 0.199 | 0.195 | 0.7 |
| IA-LM | – | – | – | – | – | 0.367 | 0.234 | 0.265 | 0.116 | 0.787 | 0.536 | 0.723 | 0.736 | 0.729 | 0.62 | 0.148 | 0.117 | 0.951 |
| LC-2-ad | 0.262 | 0.25 | 0.31 | 0.258 | 0.247 | 0.146 | 0.315 | 0.231 | 0.116 | 0.888 | 0.864 | 0.825 | 0.823 | 0.849 | 0.621 | 0.288 | 0.235 | 0.73 |
| LCLC-97TM1 | 0.188 | 0.175 | 0.19 | 0.184 | 0.178 | 0.12 | 0.219 | 0.167 | 0.279 | 0.199 | 0.234 | 0.205 | 0.207 | 0.235 | 0.172 | 0.151 | 0.194 | 0.435 |
| LCLC-103H | 0.469 | 0.464 | 0.482 | 0.492 | 0.5 | 0.406 | 0.51 | 0.331 | 0.408 | 1.07 | 0.872 | 0.94 | 0.942 | 0.959 | 0.522 | 0.373 | 0.347 | 0.59 |
| NCI-H522 | 1.26 | 0.966 | 1.18 | 1.02 | 1.16 | – | – | – | – | – | – | – | – | – | – | – | – | – |
| NCI-H727 | – | – | – | – | – | 0.277 | 0.353 | 0.35 | 0.289 | 0.502 | 0.615 | 0.589 | 0.577 | 0.589 | 0.501 | 0.477 | 0.379 | 0.65 |
| NCI-H1299 | – | – | – | – | – | 0.516 | 0.563 | 0.256 | 0.0872 | 0.985 | 1.02 | 1.07 | 0.99 | 1.1 | 0.909 | 0.483 | 0.212 | 0.888 |
| NCI-H1623 | – | – | – | – | – | – | – | – | – | – | – | – | – | – | 0.64 | 0.299 | 0.279 | 0.621 |
| NCI-H1648 | 0.682 | 0.861 | 0.531 | 0.659 | 0.558 | – | – | – | – | – | – | – | – | – | – | – | – | – |
| NCI-H1650 | 0.344 | 0.37 | 0.439 | 0.377 | 0.322 | 0.254 | 0.657 | 0.295 | 0.108 | – | – | – | – | – | 0.956 | 0.432 | 0.446 | – |
| NCI-H1703 | – | – | – | – | – | 0.236 | 0.308 | 0.381 | 0.221 | 0.407 | 0.273 | 0.354 | 0.266 | 0.309 | 0.433 | 0.512 | 0.367 | 0.321 |
| NCI-H1792 | 0.734 | 1.04 | 1.24 | 0.77 | 0.842 | 0.281 | 0.199 | 0.106 | 0.11 | 0.729 | 0.59 | 0.768 | 0.776 | 0.693 | – | – | – | – |
| NCI-H2342 | 0.757 | – | 0.831 | 0.812 | 0.711 | – | – | – | – | – | – | – | – | – | 0.928 | 0.826 | 0.525 | 1.17 |
| SW 900 | 0.484 | 0.494 | 0.498 | 0.478 | 0.461 | – | – | – | – | – | – | – | – | – | 0.667 | 0.393 | 0.448 | 0.898 |
